Experimental data published in patent publication US11951100B2, “Formulations of RBP4 inhibitors and methods of use” (Belite Bio, LLC, priority 2019, dated 2024).
Converted amounts (≈) assume the structure as drawn. “And” between values parts separate entries of the source, which are not always exact repeats. Equal values may be shown once.

Columns and labels:
[1] = Amorphous form: mDSC glass transition and TGA; type: physicochemical; conditions: preliminary TGA data
Description: To assess the feasibility of solid dispersion approach in formulation development, the glass transition temperature of the material was determined by modulated differential scanning calorimetry (mDSC). […] Therefore, as preparing an in-situ amorphous material in DSC pan, the end temperature should not ramp beyond 260° C. The amorphous samples were generated by heating the raw APIs from 25 to 250° C., followed by a rapid cooling to −60° C. The glass transition temperature (Tg) was measured by a slow heating of the generated amorphous samples from −60° C. to 250° C. The Tg for in-situ generated amorphous material from C and Form A was 93° C. and 97° C., respectively. The discrepancy in the two Tg values may simply due to the variation of water content in the samples or chemical purity.

[2] = Equilibrium solubility by HPLC, Form C, ambient temperature; type: physicochemical; conditions: for solubility: thermodynamic from solid
Description: […] (as a part of feasibility assessment of liquid dosage form in formulation development and dissolution method development), a number of […] […] The equilibrated suspensions were isolated by centrifuge and the filtrates were injected into HPLC to determine equilibrium solubility of the API in each solvent system.

[3] = MDSC of spray dried solid dispersions; type: physicochemical; conditions: n = 3
Description: Samples of the solid dispersions containing Compound 1 were analyzed by Differential Scanning Calorimetry using a TA Discovery DSC2500 with RCS90 chiller according to standard instrument procedures provided by manufacturer. Parameters used for the analysis are shown below in Table 9. Three replicates of the experiment were run for each dispersion.

[4] = Melt-quench modulated DSC of Compound 1; type: physicochemical
Description: A sample of Compound 1 was analyzed by Modulated Differential Scanning Calorimetry using a TA Discovery DSC2500 with RCS90 chiller according to standard instrument procedures provided by manufacturer. Parameters used for the analysis are shown below in Table 4. Two replicates of the experiment were run with reproducible results. The resulting thermogram, shown in FIG. 10C, indicates a glass transition temperature (Tg) of about 93° C., a crystallization temperature (Tc) of about 136° C., and a Tm/Tg ratio of 1.37. The Tm/Tg ratio of 1.37 is indicative of moderate physical stability. Without being bound by theory, the Te observed quickly after Compound 1 entering a rubbery state was indicative of a propensity to crystallize. [table]

[5] = DSC of crystalline Compound 1; type: physicochemical; conditions: ramp 10.0° C./min, 35° C.-275° C.
Description: A sample of Compound 1 was analyzed by Differential Scanning Calorimetry using a TA Discovery DSC2500 with RCS90 chiller according to standard instrument procedures provided by manufacturer. Parameters used for the analysis are shown below in Table 3. Two replicates of the experiment were run with reproducible results. The resulting thermogram, shown in FIG. 10B, indicated a melting temperature (Tm) of Compound 1 of about 229° C. and no degradation up to 275° C.

[6] = Non-sink dissolution of unmicronized and micronized Form C in SLS in water; type: physicochemical; conditions: aqueous with cosolvent or surfactant or cyclodextrin
Description: The enhancement in dissolution rate from micronized samples was likely due to the increase in surface area after micronization supported by microscopic images and particle sizing.

Caco-2 monolayers = assay: Permeability through Caco-2 monolayers; type: in vitro ADME
Description: Several biopharmaceutically relevant parameters of the API (Compound 1) were obtained for the API. […] Based on these two biopharmaceutical parameters, this compound is possibly a BCS Class II. Solubility enhancement is critical for bioavailability of the API for dosing. Therefore, to overcome the limitation from solubility, several experiments were conducted to assess various solubility enhancement approaches utilized in formulation development

[7] = Non-sink dissolution, 0.1N HCl then FaSSIF; type: physicochemical
Description: Sample of solid dispersions containing Compound 1 were analyzed in a non-sink dissolution experiment. Dispersion samples and neat Compound 1 were suspended in 0.1N HCl media at a concentration of 1000 ug/mL Compound 1. Concentration of each sample was then measured by centrifugation to pellet undissolved material, and an aliquot of the supernatant was assessed by HPLC for concentration. Material was then agitated in a Distek 2100 C Dissolution apparatus, USP Type II. Instrument was operated according to standard instrument procedures provided by manufacturer. Parameters used for the experiment are shown below in Table 11. After 30 minutes, the media was modulated to FaSSIF by adding equivalent volume of FaSSIF buffer with bile salts, bringing the theoretical concentration of compound 1 to 500 μg/mL. Dissolved concentration of Compound 1 in each sample was then assessed periodically by HPLC. […] These resulting values can be seen in Table 12 below.

CC(=O)N1CCc2c(C(=O)N3CCC(c4ccc(F)c(F)c4C(F)(F)F)CC3)n[nH]c2C1 [Compound 1, 1-(3-(4-(3,4-difluoro-2-(trifluoromethyl)phenyl)piperidine-1-carbonyl)-1,4,5,7-tetrahydro-6H-pyrazolo[3,4-c]pyridin-6-yl)ethan-1-one]
temperature at which continuous weight loss due to decomposition started (TGA) [1]: 260 °C
solubility ([2]; Canola Oil, oil or lipid, Canola Oil, read-out: Solubility by HPLC): 31 µg/mL (≈ 67.9 µM)
solubility ([2]; Capmul MCM, EP, oil or lipid, Capmul MCM, EP, read-out: Solubility by HPLC): 3900 µg/mL (≈ 8540 µM)
solubility ([2]; Capmul MCM, NF, oil or lipid, Capmul MCM, NF, read-out: Solubility by HPLC): 4400 µg/mL (≈ 9640 µM)
solubility ([2]; Captex 300, EP/NF, oil or lipid, Captex 300, EP/NF, read-out: Solubility by HPLC): 64 µg/mL (≈ 140 µM)
solubility ([2]; Captex 355, EP/NF, oil or lipid, Captex 355, EP/NF, read-out: Solubility by HPLC): 49 µg/mL (≈ 107 µM)
solubility ([2]; Castor Oil, oil or lipid, Castor Oil, read-out: Solubility by HPLC): 990 µg/mL (≈ 2170 µM)
solubility ([2]; Corn Oil, oil or lipid, Corn Oil, read-out: Solubility by HPLC): 31 µg/mL (≈ 67.9 µM)
solubility ([2]; FaSSIF, pH 4.96, fassif, FaSSIF, Final pH: 4.96, read-out: Solubility by HPLC): 39 µg/mL (≈ 85.4 µM)
solubility ([2]; FaSSIF, pH 4.99, fassif, FaSSIF, Final pH: 4.99, read-out: Solubility by HPLC): 47 µg/mL (≈ 103 µM)
solubility ([2]; FaSSIF, pH 6.77, fassif, FaSSIF, Final pH: 6.77, read-out: Solubility by HPLC): 5.1 µg/mL (≈ 11.2 µM)
solubility ([2]; FaSSIF, pH 6.78, fassif, FaSSIF, Final pH: 6.78, read-out: Solubility by HPLC): 3.2 µg/mL (≈ 7.01 µM)
solubility ([2]; Gelucire 44/14 1 mg/mL (500× cmc), aqueous with cosolvent or surfactant or cyclodextrin, Gelucire 44/14, 1 mg/mL (500× cmc), read-out: Solubility by HPLC): 0.8 µg/mL (≈ 1.75 µM)
solubility ([2]; Kolliphor HS-15, 35 °C, organic solvent or mixture, Kolliphor HS-15, Stirred at 35° C., read-out: Solubility by HPLC): 2800 µg/mL (≈ 6130 µM)
solubility ([2]; Kolliphor P188 0.4 mM (3.2× cmc), aqueous with cosolvent or surfactant or cyclodextrin, Kolliphor P188, 0.4 mM (3.2× cmc), read-out: Solubility by HPLC): 1.6 µg/mL (≈ 3.51 µM)
solubility ([2]; Kolliphor P188 4 mM (32× cmc), aqueous with cosolvent or surfactant or cyclodextrin, Kolliphor P188, 4 mM (32× cmc), read-out: Solubility by HPLC): 3.1 µg/mL (≈ 6.79 µM)
solubility ([2]; Labrafil M1944CS, oil or lipid, Labrafil M1944CS, read-out: Solubility by HPLC): 280 µg/mL (≈ 613 µM)
solubility ([2]; Labrasol, oil or lipid, Labrasol, read-out: Solubility by HPLC): 1700 µg/mL (≈ 3720 µM)
solubility ([2]; Lecithin 61 mg/mL (100× cmc), aqueous with cosolvent or surfactant or cyclodextrin, Lecithin, 61 mg/mL (100× cmc), read-out: Solubility by HPLC): 53 µg/mL (≈ 116 µM)
solubility ([2]; Miglyol 810, oil or lipid, Miglyol 810, read-out: Solubility by HPLC): 53 µg/mL (≈ 116 µM)
solubility ([2]; Miglyol 812, oil or lipid, Miglyol 812, read-out: Solubility by HPLC): 52 µg/mL (≈ 114 µM)
solubility ([2]; Oleic Acid, oil or lipid, Oleic Acid, read-out: Solubility by HPLC): 390 µg/mL (≈ 854 µM)
solubility ([2]; PEG 400, organic solvent or mixture, PEG 400, read-out: Solubility by HPLC): 2000 µg/mL (≈ 4380 µM)
solubility ([2]; Peceol, oil or lipid, Peceol, read-out: Solubility by HPLC): 1300 µg/mL (≈ 2850 µM)
solubility ([2]; Plurol Oleique CC 497, oil or lipid, Plurol Oleique CC 497, read-out: Solubility by HPLC): 1200 µg/mL (≈ 2630 µM)
solubility ([2]; Sodium Lauryl Sulfate 8.2 mM (cmc), aqueous with cosolvent or surfactant or cyclodextrin, Sodium Lauryl Sulfate, 8.2 mM (cmc), read-out: Solubility by HPLC): 150 µg/mL (≈ 329 µM)
solubility ([2]; Sodium Lauryl Sulfate 41 mM (5× cmc), aqueous with cosolvent or surfactant or cyclodextrin, Sodium Lauryl Sulfate, 41 mM (5× cmc), read-out: Solubility by HPLC): 1600 µg/mL (≈ 3510 µM)
solubility ([2]; Sodium Lauryl Sulfate 82 mM (10× cmc), aqueous with cosolvent or surfactant or cyclodextrin, Sodium Lauryl Sulfate, 82 mM (10× cmc), read-out: Solubility by HPLC): 2400 µg/mL (≈ 5260 µM)
Solubility by HPLC ([2]; Sodium Lauryl Sulfate, 0.82M (100× cmc)): 17000 µg/mL and 19000 µg/mL
solubility ([2]; Soybean Oil, oil or lipid, Soybean Oil, read-out: Solubility by HPLC): 30 µg/mL (≈ 65.7 µM)
solubility ([2]; Transcutol HP, organic solvent or mixture, Transcutol HP, read-out: Solubility by HPLC): 4700 µg/mL (≈ 10300 µM)
solubility ([2]; Triacetic, organic solvent or mixture, Triacetic, read-out: Solubility by HPLC): 430 µg/mL (≈ 942 µM)
solubility ([2]; Tween 80, 1.2 mM (100× CMC), aqueous with cosolvent or surfactant or cyclodextrin, Tween 80, 1.2 mM (100× cmc), read-out: Solubility by HPLC): 560 µg/mL (≈ 1230 µM)
solubility ([2]; Vitamin E TPGS 0.2 wt % (10× cmc), aqueous with cosolvent or surfactant or cyclodextrin, Vitamin E TPGS, 0.2 wt % (10× cmc), read-out: Solubility by HPLC): 20 µg/mL (≈ 43.8 µM)
solubility ([2]; Vitamin E TPGS 2 wt % (100× cmc), aqueous with cosolvent or surfactant or cyclodextrin, Vitamin E TPGS, 2 wt % (100× cmc), read-out: Solubility by HPLC): 40 µg/mL (≈ 87.6 µM)
solubility ([2]; Water, pH 8.99, water, Water, Final pH: 8.99, read-out: Solubility by HPLC): 1 µg/mL (≈ 2.19 µM)
solubility ([2]; ethanol, organic solvent or mixture, Ethanol, read-out: Solubility by HPLC): 3100 µg/mL (≈ 6790 µM)
solubility ([2]; organic solvent or mixture, EtOH, PEG 400, Propylene glycol, Capmul MCM NF, Kolliphor EL, Capmul MCM EP, Plurol Oleique CC 497, Peceol, Labrasol, SLS at 5× and 10×CMC, Transcutol HP, read-out: solubility of the API): 1000 to 5000 µg/mL (≈ 2190 to 11000 µM)
solubility ([2]; pH 1.0 buffer, pH 1, simulated gastric fluid, pH 1.0 buffer, Final pH: 0.89, read-out: Solubility by HPLC): 1.2 µg/mL (≈ 2.63 µM)
solubility ([2]; pH 4.5 buffer, pH 4.5, aqueous buffer, pH 4.5 buffer, Final pH: 4.80, read-out: Solubility by HPLC): 1.1 µg/mL (≈ 2.41 µM)
solubility ([2]; pH 6.8 buffer, pH 6.8, aqueous buffer, pH 6.8 buffer, Final pH: 6.50, read-out: Solubility by HPLC): 0.8 µg/mL (≈ 1.75 µM)
solubility ([2]; propylene glycol, organic solvent or mixture, Propylene Glycol, read-out: Solubility by HPLC): 2600 µg/mL (≈ 5700 µM)
solubility ([2]; sodium lauryl sulfate solution, 0.82 M (100× CMC), aqueous with cosolvent or surfactant or cyclodextrin, Sodium Lauryl Sulfate, 0.82M (100× cmc), read-out: Solubility by HPLC): > 10000 µg/mL
solubility ([2]; sulfobutylether β-cyclodextrin, 40 wt %, aqueous with cosolvent or surfactant or cyclodextrin, Sulfobutylether β-CD, 40 wt %, read-out: Solubility by HPLC): 750 µg/mL (≈ 1640 µM)
Tg [3]: 93.4 °C
Tg Onset [3]: 89.4 °C
Tm/Tg ratio ([4]; indicative of moderate physical stability): 1.37
crystallization temperature (Tc) ([4]; melt-quenched Compound 1): about 136 °C
glass transition temperature (Tg) ([4]; melt-quenched Compound 1): about 93 °C
no degradation up to (DSC) [5]: 275 °C
solubility ([6]; 0.366% SLS in water, read-out: nominal solubility of the API): ~460 µg/mL (≈ 1010 µM)
solubility ([6]; 0.36% SLS in water, calculated from SLS concentration vs solubility profile, read-out: solubility of the API): 445 µg/mL (≈ 974 µM)
efflux (Caco-2 monolayers; apical-to-basolateral and basolateral-to-apical): no significant efflux
absorption potential classification (Caco-2 monolayers; apical-to-basolateral and basolateral-to-apical (Absorption Systems)): high
BCS classification (Caco-2 monolayers; based on Log D7.4 and Caco-2 data, possibly): BCS Class II
AUC 5-180 IB ([7]; FaSSIF): 1300 min*μgA/mL
C210 ([7]; final concentration): 7.1 μgA/mL
